Experimental data reported in US20140005163A1 (NOVARTIS AG, priority 2010, published 2014).

Columns and labels:
[1] = test system: PKB Ser473 phosphorylation in Rat1-myr-HA-p110 beta cells; assay: Reverse protein array assay, PKB Ser473 phosphorylation in Rat1-myr-p110 beta cells; format: cell-based; settings: 0.5 h, pAkt Ser473, 30 minutes incubation, read-out: p-PKB IC50
Method in brief: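 After at least 20 h of culture, the p110 isoform-transfected Rat1 lines receive compound in an 8-step dilution series, keeping DMSO at 0.2%, for 30 minutes. Cells are then lysed and lysates arrayed on chips for fluorescence detection of Ser473-phosphorylated PKB.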

[2] = target: T1, PI3K beta (Homo sapiens, UniProt P42338); assay: PI3K beta kinase assay (Kinase-Glo luminescence); format: biochemical
T1 construct: for the full-length p110-b subunit are generated and fused by overlapping PCR; p85(iSH2) fusion partner (see partner chain) (N); His tag (C); made in house; host or cells: baculovirus; Tn5 (Trichoplusia ni) or TiniPro insect cells
Method in brief: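 Kinase-Glo luminescence after a 60 min room-temperature reaction gives remaining ATP. The reaction holds 25 nM p85(iSH2)-p110β full-length His-tagged construct, 1 μM ATP, 10 μg/mL PI, and eight compound concentrations at 0.45% DMSO final. IC50 values come from a four-parameter logistic fit.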

T1 sequence (P42338 with tags, fused parts or gaps limits assumed): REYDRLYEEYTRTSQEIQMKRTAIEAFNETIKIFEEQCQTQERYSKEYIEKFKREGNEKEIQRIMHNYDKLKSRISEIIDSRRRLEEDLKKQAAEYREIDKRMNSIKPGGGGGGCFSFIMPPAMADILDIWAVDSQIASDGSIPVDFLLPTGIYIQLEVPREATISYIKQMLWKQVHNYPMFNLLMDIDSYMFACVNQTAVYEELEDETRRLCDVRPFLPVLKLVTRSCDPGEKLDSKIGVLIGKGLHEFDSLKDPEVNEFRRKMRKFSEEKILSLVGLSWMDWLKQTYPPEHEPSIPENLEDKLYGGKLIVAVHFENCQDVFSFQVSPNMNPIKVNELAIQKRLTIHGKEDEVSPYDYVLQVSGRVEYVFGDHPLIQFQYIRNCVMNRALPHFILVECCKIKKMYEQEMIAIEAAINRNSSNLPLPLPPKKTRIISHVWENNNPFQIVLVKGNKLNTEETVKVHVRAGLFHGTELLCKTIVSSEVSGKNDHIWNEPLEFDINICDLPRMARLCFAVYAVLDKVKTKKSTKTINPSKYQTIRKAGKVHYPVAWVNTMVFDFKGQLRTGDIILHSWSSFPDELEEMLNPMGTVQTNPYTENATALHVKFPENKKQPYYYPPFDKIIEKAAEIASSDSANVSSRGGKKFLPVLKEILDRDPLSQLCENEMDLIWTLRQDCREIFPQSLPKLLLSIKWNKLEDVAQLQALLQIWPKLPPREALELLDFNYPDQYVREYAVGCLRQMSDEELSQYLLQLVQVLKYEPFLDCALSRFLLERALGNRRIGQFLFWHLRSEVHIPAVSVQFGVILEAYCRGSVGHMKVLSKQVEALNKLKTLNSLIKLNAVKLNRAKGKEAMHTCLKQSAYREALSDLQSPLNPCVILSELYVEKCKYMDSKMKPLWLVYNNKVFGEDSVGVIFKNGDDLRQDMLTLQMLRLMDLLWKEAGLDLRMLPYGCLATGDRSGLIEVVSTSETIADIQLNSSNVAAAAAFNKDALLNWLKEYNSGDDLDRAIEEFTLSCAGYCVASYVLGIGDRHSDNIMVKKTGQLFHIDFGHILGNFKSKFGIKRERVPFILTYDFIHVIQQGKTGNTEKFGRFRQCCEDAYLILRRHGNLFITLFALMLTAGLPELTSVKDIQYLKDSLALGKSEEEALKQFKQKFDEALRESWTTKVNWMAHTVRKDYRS

| Compound | IC50 [1] [µM] | IC50 [2] [µM] |
| --- | --- | --- |
| CN(C)c1ncc(-c2ccc3ncc4c(c3c2)n(-c2cn(C)nc2Cl)c(=O)n4C)cn1 [Example 6.3, 1-(3-Chloro-1-methyl-1H-pyrazol-4-yl)-8-(2-dimethylamino-pyrimidin-5-yl)-3-methyl-1,3-dihydro-imidazo[4,5-c]quinolin-2-one] | 0.015 | 0.051 |
| Cc1nn(C)cc1-n1c(=O)n(C)c2cnc3ccc(-c4cnc(N)c(C(F)(F)F)c4)cc3c21 [Example 25.1, 8-(6-Amino-5-trifluoromethyl-pyridin-3-yl)-1-(1,3-dimethyl-1H-pyrazol-4-yl)-3-methyl-1,3-dihydro-imidazo[4,5-c]quinolin-2-one] | 0.006 | 0.019 |
| Cc1cc(-n2c(=O)n(C)c3cnc4ccc(-c5cnc(N)c(C(F)(F)F)c5)cc4c32)n(C)n1 [Example 25.6, 8-(6-Amino-5-trifluoromethyl-pyridin-3-yl)-1-(2,5-dimethyl-2H-pyrazol-3-yl)-3-methyl-1,3-dihydro-imidazo[4,5-c]quinolin-2-one] | 0.015 | 0.133 |
| CC(C)Oc1cncc(-c2ccc3ncc4c(c3c2)n(-c2cn(C)nc2Cl)c(=O)n4C)c1 [Example 58.2, 1-(3-Chloro-1-methyl-1H-pyrazol-4-yl)-8-(5-isopropoxy-pyridin-3-yl)-3-methyl-1,3-dihydro-imidazo[4,5-c]quinolin-2-one] | 0.014 | 0.005 |
| Cc1nn(C)cc1-n1c(=O)n(C)c2cnc3ccc(-c4cncc(OC5CCC5)c4)cc3c21 [Example 60.1, 8-(5-Cyclobutoxy-pyridin-3-yl)-1-(1,3-dimethyl-1H-pyrazol-4-yl)-3-methyl-1,3-dihydro-imidazo[4,5-c]quinolin-2-one] | 0.023 | 0.003 |
| Cc1nn(C)cc1-n1c(=O)n(C)c2cnc3ccc(-c4cccc(OC(C)C)c4)cc3c21 [Example 82, 1-(1,3-Dimethyl-1H-pyrazol-4-yl)-8-(3-isopropoxy-phenyl)-3-methyl-1,3-dihydro-imidazo[4,5-c]quinolin-2-one] | 0.284 | 0.154 |
| CCN(CC)c1cncc(-c2ccc3ncc4c(c3c2)n(-c2cn(C)nc2C)c(=O)n4C)c1 [Example 95, 8-(5-Diethylamino-pyridin-3-yl)-1-(1,3-dimethyl-1H-pyrazol-4-yl)-3-methyl-1,3-dihydro-imidazo[4,5-c]quinolin-2-one] | 0.017 | 0.041 |
| Cc1nn(C)cc1-n1c(=O)n(C)c2cnc3ccc(-c4ccc(N5CCCC5)nc4)cc3c21 [Example 97, 1-(1,3-Dimethyl-1H-pyrazol-4-yl)-3-methyl-8-(6-pyrrolidin-1-yl-pyridin-3-yl)-1,3-dihydro-imidazo[4,5-c]quinolin-2-one] | 0.017 | – |
| CNc1ncc(-c2ccc3ncc4c(c3c2)n(-c2cn(C)nc2Cl)c(=O)n4C)cc1C [Example 119, 1-(3-Chloro-1-methyl-1H-pyrazol-4-yl)-3-methyl-8-(5-methyl-6-methylamino-pyridin-3-yl)-1,3-dihydro-imidazo[4,5-c]quinolin-2-one] | 0.01 | 0.02 |
| CNc1ncc(-c2ccc3ncc4c(c3c2)n(-c2cn(C(C)C)nc2C)c(=O)n4C)cc1C(F)(F)F [Example 144.2, 1-(1-Isopropyl-3-methyl-1H-pyrazol-4-yl)-3-methyl-8-(6-methylamino-5-trifluoromethyl-pyridin-3-yl)-1,3-dihydro-imidazo[4,5-c]quinolin-2-one] | 0.012 | 0.04 |
| CCNc1ncc(-c2ccc3ncc4c(c3c2)n(-c2cn(C)nc2C)c(=O)n4C)cc1C(F)(F)F [Example 145.2, 1-(1,3-Dimethyl-1H-pyrazol-4-yl)-8-(6-ethylamino-5-trifluoromethyl-pyridin-3-yl)-3-methyl-1,3-dihydro-imidazo[4,5-c]quinolin-2-one] | 0.013 | 0.05 |
| CCn1cc(-n2c(=O)n(C)c3cnc4ccc(-c5cnc(N)c(Cl)c5)cc4c32)c(C)n1 [Example 148.3, 8-(6-Amino-5-chloro-pyridin-3-yl)-1-(1-ethyl-3-methyl-1H-pyrazol-4-yl)-3-methyl-1,3-dihydro-imidazo[4,5-c]quinolin-2-one] | 0.01 | 0.003 |
| Cc1cc(-n2c(=O)n(C)c3cnc4ccc(-c5cnc(F)c(N)c5)cc4c32)n(C)n1 [Example 149.3, 8-(5-Amino-6-fluoro-pyridin-3-yl)-1-(2,5-dimethyl-2H-pyrazol-3-yl)-3-methyl-1,3-dihydro-imidazo[4,5-c]quinolin-2-one] | 0.084 | 0.202 |
| Cc1nn(C(C)C)cc1-n1c(=O)n(C)c2cnc3ccc(-c4cnc(Cl)c(N)c4)cc3c21 [Example 152.1, 8-(5-Amino-6-chloro-pyridin-3-yl)-1-(1-isopropyl-3-methyl-1H-pyrazol-4-yl)-3-methyl-1,3-dihydro-imidazo[4,5-c]quinolin-2-one] | 0.006 | 0.079 |
| Cc1nn(C)c(C)c1-n1c(=O)n(C)c2cnc3ccc(-c4cnc(Cl)c(N)c4)cc3c21 [Example 152.3, 8-(5-Amino-6-chloro-pyridin-3-yl)-3-methyl-1-(1,3,5-trimethyl-1H-pyrazol-4-yl)-1,3-dihydro-imidazo[4,5-c]quinolin-2-one] | 0.113 | 0.079 |
| CCOCc1cc(-c2ccc3ncc4c(c3c2)n(-c2cn(C(C)C)nc2C)c(=O)n4C)cnc1N [Example 166.3, 8-(6-Amino-5-ethoxymethyl-pyridin-3-yl)-1-(1-isopropyl-3-methyl-1H-pyrazol-4-yl)-3-methyl-1,3-dihydro-imidazo[4,5-c]quinolin-2-one] | 0.119 | 0.081 |
| CCOCc1cc(-c2ccc3ncc4c(c3c2)n(-c2cn(C)nc2Cl)c(=O)n4C)cnc1N [Example 166.4, 8-(6-Amino-5-ethoxymethyl-pyridin-3-yl)-1-(3-chloro-1-methyl-1H-pyrazol-4-yl)-3-methyl-1,3-dihydro-imidazo[4,5-c]quinolin-2-one] | 0.011 | 0.01 |
| Cc1nn(C(C)C)cc1-n1c(=O)n(C)c2cnc3ccc(-c4cnc5c(c4)COC(=O)N5C)cc3c21 [Example 170, 1-(1-Isopropyl-3-methyl-1H-pyrazol-4-yl)-3-methyl-8-(1-methyl-2-oxo-1,4-dihydro-2H-pyrido[2,3-d][1,3]oxazin-6-yl)-1,3-dihydro-imidazo[4,5-c]quinolin-2-one] | 0.37 | 0.395 |
| Cc1nn(C)cc1-n1c(=O)n(C)c2cnc3ccc(-c4cncc(N(C)C5CCC5)c4)cc3c21 [Example 174, 8-[5-(Cyclobutyl-methyl-amino)-pyridin-3-yl]-1-(1,3-dimethyl-1H-pyrazol-4-yl)-3-methyl-1,3-dihydro-imidazo[4,5-c]quinolin-2-one] | 0.01 | 0.036 |
| Cc1cc(-n2c(=O)n(C)c3cnc4ccc(-c5cnc(C)c(O)c5)cc4c32)n(C)n1 [Example 185.2, 1-(2,5-Dimethyl-2H-pyrazol-3-yl)-8-(5-hydroxy-6-methyl-pyridin-3-yl)-3-methyl-1,3-dihydro-imidazo[4,5-c]quinolin-2-one] | 0.088 | 0.056 |
| [2H]C([2H])([2H])OCc1ncc(-c2ccc3ncc4c(c3c2)n(-c2cn(C)nc2C)c(=O)n4C)cc1OCC [Example 198, 1-(1,3-Dimethyl-1H-pyrazol-4-yl)-8-(5-ethoxy-6-trideuteromethoxymethyl-pyridin-3-yl)-3-methyl-1,3-dihydro-imidazo[4,5-c]quinolin-2-one] | 0.037 | 0.032 |
